# Reference: ChEMBL document CHEMBL5653631, “A Potent and Selective ULK1 Inhibitor Suppresses Autophagy and Sensitizes Cancer Cells to Nutrient Stress” (iScience, 2018)
# How the values were obtained:
# [1] = biological target: Glycogen synthase kinase-3 alpha (Homo sapiens) (UniProt P49840); assay: Inhibition of human recombinant GSK3A at 500 nM in presence of ATP by radiometric assay relative to control
# [2] = biological target: Cyclin-dependent kinase 18 (Homo sapiens) (UniProt Q07002); assay: Inhibition of human recombinant PCTAIRE3 at 500 nM in presence of ATP by radiometric assay relative to control
# Sequence of Cyclin-dependent kinase 18 (Homo sapiens) (Q07002 whole entry): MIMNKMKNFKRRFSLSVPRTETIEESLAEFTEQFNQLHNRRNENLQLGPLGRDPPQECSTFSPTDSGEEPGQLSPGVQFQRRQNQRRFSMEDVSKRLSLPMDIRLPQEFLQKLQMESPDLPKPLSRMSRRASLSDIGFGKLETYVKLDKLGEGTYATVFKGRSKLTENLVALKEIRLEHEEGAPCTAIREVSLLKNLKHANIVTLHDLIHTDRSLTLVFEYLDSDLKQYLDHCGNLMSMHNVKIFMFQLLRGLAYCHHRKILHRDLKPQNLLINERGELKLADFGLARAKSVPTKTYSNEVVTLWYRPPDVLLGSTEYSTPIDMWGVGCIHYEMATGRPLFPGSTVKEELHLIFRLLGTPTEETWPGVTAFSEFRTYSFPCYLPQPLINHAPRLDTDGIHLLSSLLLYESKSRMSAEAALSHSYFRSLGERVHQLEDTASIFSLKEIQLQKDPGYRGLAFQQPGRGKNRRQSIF
# [3] = biological target: SRSF protein kinase 1 (Homo sapiens) (UniProt Q96SB4); assay: Inhibition of human recombinant SRPK1 at 500 nM related to control ULK1
# Sequence of SRSF protein kinase 1 (Homo sapiens) (Q96SB4 whole entry): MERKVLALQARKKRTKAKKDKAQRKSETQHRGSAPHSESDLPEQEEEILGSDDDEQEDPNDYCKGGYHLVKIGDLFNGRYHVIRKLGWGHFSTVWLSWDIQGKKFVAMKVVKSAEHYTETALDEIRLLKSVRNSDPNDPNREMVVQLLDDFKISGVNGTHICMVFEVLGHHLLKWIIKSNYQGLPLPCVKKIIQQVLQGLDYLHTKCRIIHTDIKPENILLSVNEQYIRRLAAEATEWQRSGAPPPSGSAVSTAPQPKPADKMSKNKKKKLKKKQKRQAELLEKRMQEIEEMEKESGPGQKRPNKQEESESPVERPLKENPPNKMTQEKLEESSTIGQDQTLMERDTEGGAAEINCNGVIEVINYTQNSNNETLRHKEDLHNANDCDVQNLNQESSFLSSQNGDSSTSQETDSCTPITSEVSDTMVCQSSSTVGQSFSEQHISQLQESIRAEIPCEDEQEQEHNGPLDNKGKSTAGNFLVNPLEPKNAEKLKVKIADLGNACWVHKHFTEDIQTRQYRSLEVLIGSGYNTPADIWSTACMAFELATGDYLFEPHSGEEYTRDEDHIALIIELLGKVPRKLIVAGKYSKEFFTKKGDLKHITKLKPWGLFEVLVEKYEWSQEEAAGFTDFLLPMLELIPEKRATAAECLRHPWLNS
# [4] = biological target: Protein kinase C beta type (Homo sapiens) (UniProt P05771); assay: Inhibition of human recombinant PKCb at 15 nM in presence of ATP by radiometric assay relative to control
# Sequence of Protein kinase C beta type (Homo sapiens) (P05771 2-671 limits assumed): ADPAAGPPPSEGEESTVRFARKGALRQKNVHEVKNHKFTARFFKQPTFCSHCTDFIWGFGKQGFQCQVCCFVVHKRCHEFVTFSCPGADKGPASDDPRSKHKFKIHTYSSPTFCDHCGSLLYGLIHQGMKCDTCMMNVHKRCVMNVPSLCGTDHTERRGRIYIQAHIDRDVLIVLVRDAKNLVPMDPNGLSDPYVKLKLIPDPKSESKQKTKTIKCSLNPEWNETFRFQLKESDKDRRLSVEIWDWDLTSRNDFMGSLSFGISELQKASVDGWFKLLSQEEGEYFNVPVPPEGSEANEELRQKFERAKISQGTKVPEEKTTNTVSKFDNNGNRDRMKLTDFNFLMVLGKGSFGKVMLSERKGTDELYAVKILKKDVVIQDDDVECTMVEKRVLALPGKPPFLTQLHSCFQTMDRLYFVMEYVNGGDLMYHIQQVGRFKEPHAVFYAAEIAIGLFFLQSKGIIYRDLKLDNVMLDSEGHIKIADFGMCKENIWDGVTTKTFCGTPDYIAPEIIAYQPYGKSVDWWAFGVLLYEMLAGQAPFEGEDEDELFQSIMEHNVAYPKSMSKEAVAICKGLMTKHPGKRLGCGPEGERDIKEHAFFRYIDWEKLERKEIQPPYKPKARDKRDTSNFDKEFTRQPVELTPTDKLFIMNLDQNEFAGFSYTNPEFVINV
# [5] = biological target: T1, Ephrin type-A receptor 3 (Homo sapiens) (UniProt P29320); assay: Inhibition of human recombinant EphA3 at 15 nM related to control ULK1
# T1 sequence (whole entry): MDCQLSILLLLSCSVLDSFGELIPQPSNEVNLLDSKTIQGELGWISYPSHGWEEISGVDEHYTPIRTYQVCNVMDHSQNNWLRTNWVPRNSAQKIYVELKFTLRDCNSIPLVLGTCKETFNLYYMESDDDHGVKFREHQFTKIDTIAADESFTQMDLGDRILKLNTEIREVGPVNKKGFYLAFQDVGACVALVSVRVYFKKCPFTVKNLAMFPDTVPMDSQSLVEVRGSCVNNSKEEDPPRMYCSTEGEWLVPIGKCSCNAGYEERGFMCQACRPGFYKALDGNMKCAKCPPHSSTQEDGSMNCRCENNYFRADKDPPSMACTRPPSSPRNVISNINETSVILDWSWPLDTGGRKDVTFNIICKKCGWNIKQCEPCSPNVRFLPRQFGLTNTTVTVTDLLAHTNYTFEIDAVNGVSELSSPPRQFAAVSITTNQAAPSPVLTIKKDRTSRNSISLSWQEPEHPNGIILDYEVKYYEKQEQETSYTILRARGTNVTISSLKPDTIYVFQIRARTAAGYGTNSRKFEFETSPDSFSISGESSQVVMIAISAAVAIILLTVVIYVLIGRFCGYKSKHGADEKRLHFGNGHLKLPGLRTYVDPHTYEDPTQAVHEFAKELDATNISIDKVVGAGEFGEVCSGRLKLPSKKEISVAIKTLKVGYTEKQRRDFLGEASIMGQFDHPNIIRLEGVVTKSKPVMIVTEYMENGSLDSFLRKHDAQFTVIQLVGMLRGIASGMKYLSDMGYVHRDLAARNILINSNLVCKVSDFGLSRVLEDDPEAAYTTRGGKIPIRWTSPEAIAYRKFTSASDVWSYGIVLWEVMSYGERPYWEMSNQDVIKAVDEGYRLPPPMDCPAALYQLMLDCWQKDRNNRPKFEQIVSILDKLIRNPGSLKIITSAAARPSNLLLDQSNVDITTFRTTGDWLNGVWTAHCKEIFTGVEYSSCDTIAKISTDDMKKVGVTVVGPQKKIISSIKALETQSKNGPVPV
# [6] = biological target: Serine/threonine-protein kinase PAK 3 (Homo sapiens) (UniProt O75914); assay: Inhibition of human recombinant PAK3 at 15 nM related to control ULK1
# Sequence of Serine/threonine-protein kinase PAK 3 (Homo sapiens) (O75914 whole entry, looked up): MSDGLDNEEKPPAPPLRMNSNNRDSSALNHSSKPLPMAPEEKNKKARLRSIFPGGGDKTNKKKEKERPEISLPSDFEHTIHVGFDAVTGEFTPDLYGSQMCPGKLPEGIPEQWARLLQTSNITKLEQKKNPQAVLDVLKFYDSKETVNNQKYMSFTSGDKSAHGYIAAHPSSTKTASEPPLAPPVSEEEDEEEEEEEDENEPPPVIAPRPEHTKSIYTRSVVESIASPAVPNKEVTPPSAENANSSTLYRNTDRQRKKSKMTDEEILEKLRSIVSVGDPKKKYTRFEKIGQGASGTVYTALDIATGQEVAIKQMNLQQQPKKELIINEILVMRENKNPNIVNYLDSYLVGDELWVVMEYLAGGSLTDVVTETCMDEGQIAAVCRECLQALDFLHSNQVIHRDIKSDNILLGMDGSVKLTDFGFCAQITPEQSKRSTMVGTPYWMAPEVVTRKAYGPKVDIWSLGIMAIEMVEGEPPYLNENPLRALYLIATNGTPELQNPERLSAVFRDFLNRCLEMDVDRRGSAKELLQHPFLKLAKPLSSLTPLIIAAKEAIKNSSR
# [7] = biological target: Serine/threonine-protein kinase PAK 2 (Homo sapiens) (UniProt Q13177); assay: Inhibition of human recombinant PAK2 at 40 nM in presence of ATP by radiometric assay relative to control
# Sequence of Serine/threonine-protein kinase PAK 2 (Homo sapiens) (Q13177 whole entry): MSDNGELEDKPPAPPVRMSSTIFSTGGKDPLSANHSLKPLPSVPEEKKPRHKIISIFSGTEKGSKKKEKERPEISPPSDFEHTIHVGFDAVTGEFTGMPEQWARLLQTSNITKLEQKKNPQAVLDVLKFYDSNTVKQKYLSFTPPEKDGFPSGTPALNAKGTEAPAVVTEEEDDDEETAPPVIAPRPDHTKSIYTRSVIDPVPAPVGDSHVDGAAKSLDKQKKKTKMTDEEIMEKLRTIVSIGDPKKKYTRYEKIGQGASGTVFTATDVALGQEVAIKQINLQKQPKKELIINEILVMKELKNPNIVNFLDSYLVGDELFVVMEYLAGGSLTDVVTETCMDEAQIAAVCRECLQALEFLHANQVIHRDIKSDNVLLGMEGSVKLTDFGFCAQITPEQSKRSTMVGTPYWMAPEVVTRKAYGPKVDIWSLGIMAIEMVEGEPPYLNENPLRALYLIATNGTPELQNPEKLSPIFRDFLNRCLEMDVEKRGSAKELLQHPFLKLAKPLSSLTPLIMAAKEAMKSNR
# [8] = biological target: T2, cGMP-dependent protein kinase 2 (Homo sapiens) (UniProt Q13237); assay: Inhibition of human recombinant PKG2 at 40 nM related to control ULK1
# T2 sequence (whole entry): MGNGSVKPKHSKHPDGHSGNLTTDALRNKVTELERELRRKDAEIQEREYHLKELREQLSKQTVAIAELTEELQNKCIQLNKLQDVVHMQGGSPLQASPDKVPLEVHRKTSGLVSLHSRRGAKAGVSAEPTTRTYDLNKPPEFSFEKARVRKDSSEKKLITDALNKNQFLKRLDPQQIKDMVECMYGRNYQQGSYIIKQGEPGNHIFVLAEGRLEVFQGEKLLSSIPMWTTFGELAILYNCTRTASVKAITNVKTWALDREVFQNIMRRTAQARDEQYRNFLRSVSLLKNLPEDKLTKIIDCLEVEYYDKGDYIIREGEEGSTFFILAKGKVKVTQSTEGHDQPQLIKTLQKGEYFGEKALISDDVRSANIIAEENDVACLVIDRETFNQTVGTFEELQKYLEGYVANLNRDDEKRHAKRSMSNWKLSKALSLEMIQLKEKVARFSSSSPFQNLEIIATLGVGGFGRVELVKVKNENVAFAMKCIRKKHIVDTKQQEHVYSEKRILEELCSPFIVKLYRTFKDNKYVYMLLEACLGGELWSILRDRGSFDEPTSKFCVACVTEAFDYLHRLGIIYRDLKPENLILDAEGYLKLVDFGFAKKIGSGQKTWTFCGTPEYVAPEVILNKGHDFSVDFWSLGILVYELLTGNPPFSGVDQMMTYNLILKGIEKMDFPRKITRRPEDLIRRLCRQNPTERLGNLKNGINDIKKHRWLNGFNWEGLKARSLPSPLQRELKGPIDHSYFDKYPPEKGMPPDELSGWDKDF
# Sequence of Glycogen synthase kinase-3 alpha (Homo sapiens) (P49840 2-483 limits assumed): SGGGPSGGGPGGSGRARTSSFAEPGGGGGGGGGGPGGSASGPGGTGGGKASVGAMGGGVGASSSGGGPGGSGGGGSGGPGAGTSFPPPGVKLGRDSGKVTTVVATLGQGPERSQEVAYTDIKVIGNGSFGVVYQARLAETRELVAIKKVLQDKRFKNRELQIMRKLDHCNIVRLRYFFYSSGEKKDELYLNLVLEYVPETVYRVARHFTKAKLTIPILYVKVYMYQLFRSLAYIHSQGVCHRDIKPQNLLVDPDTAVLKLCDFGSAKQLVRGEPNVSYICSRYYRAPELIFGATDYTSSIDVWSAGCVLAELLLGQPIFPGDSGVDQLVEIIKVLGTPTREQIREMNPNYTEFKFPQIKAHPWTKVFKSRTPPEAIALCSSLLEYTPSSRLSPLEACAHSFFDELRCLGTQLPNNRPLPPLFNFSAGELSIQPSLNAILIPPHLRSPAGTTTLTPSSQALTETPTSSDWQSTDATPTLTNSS
compound,measurement,setting,value
CNC(=O)c1ccccc1Oc1nc(Nc2cc(OC)c(OC)c(OC)c2)ncc1Br,inhibition,[1],0%
same,inhibition,[2],20%
same,fold change (FC),[3],0.14
CC(C)[C@H](NC(=O)c1cc(-c2cnn3cc(-c4ccc(OCCN5CCCCC5)cc4)cnc23)cs1)C(F)(F)F,inhibition,[4],0%
same,fold change (FC),[5],0.03
same,fold change (FC),[6],0.05
O=C(N[C@@H](C1CC1)C(F)(F)F)c1cc(-c2cnn3cc(-c4ccc(F)cc4)cnc23)cs1,inhibition,[7],0%
same,fold change (FC),[8],0.01
